Test: Combination of the free target ligand of Formula II (GSK-1070916) with JQ1 (FIG. 3)
Settings: GSK-1070916 combined with JQ1; FIG. 3 legend, no model or method printed

CCn1cc(-c2ccnc3[nH]c(-c4cccc(CN(C)C)c4)cc23)c(-c2ccc(NC(=O)N(C)C)cc2)n1 [GSK-1070916]
effect of combination with JQ1: synergistic effect

Reference: patent US20220218831A1, “DEGRADATION OF AURORA KINASE (AURK) BY CONJUGATION OF AURK INHIBITORS WITH E3 LIGASE LIGAND” (Nemucore Medical Innovations, Inc., priority 2019, published 2022)
